Literature values as cited in patent publication US20160228385A1, “PURIFIED CBD AND CBDA, AND METHODS, COMPOSITIONS AND PRODUCTS EMPLOYING CBD OR CBDA” (COLORADO CAN LLC, priority 2015, published 2016).

Tested on: human subjects seeking to quit smoking
Conditions: CBD administered via an inhaler, compared to no reduction with placebo inhaler

Q: For `C=C(C)[C@@H]1CCC(C)=C[C@H]1c1c(O)cc(CCCCC)cc1O` [CBD, Cannabidiol], which “reduction of cigarette use” value is on record?
A: 40%
